System: 616215-338-R-J1-PDC tumor spheroids, viability
Test: Anticancer human tumor 616215-338-R-J1-PDC patient-derived colon adenocarcinoma cell line growth inhibition [GQUAD]
Conditions: spheroids with HUVEC and MSC; for IC50: curve of first compound; for viability, T/C: stronger effect = lower value
Method in brief: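 Tumor cells were grown as complex spheroids with HUVEC endothelial cells and mesenchymal stem cells as stroma. G-quadruplex stabilizers were combined with targeted agents over half-log dilutions from near the clinical Cmax, or from 10 microM.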

[1] = second compound 0.0316 µM, first compound 0.0316 µM
[2] = second compound 0.0316 µM, first compound 0.1 µM
[3] = second compound 0.0316 µM, first compound 0.316 µM
[4] = second compound 0.0316 µM, first compound 1 µM
[5] = second compound 0.0316 µM, first compound 3.16 µM
[6] = second compound 0.0316 µM, first compound 10 µM
[7] = second compound 0.1 µM, first compound 0.0316 µM
[8] = second compound 0.1 µM, first compound 0.1 µM
[9] = second compound 0.1 µM, first compound 0.316 µM
[10] = second compound 0.1 µM, first compound 1 µM
[11] = second compound 0.1 µM, first compound 3.16 µM
[12] = second compound 0.1 µM, first compound 10 µM
[13] = second compound 0.316 µM, first compound 0.0316 µM
[14] = second compound 0.316 µM, first compound 0.1 µM
[15] = second compound 0.316 µM, first compound 0.316 µM
[16] = second compound 0.316 µM, first compound 1 µM
[17] = second compound 0.316 µM, first compound 3.16 µM
[18] = second compound 0.316 µM, first compound 10 µM
[19] = second compound 1 µM, first compound 0.0316 µM
[20] = second compound 1 µM, first compound 0.1 µM
[21] = second compound 1 µM, first compound 0.316 µM
[22] = second compound 1 µM, first compound 1 µM
[23] = second compound 1 µM, first compound 3.16 µM
[24] = second compound 1 µM, first compound 10 µM
[25] = second compound 3.16 µM, first compound 0.0316 µM
[26] = second compound 3.16 µM, first compound 0.1 µM
[27] = second compound 3.16 µM, first compound 0.316 µM
[28] = second compound 3.16 µM, first compound 1 µM
[29] = second compound 3.16 µM, first compound 3.16 µM
[30] = second compound 3.16 µM, first compound 10 µM
[31] = second compound 10 µM, first compound 0.0316 µM
[32] = second compound 10 µM, first compound 0.1 µM
[33] = second compound 10 µM, first compound 0.316 µM
[34] = second compound 10 µM, first compound 1 µM
[35] = second compound 10 µM, first compound 3.16 µM
[36] = second compound 10 µM, first compound 10 µM
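Further: spheroids exposed to agents for 7 days before readout.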
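Wherever viability, T/C is given: percent viability relative to DMSO vehicle control wells taken as 100%.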

CC1COCCN1c1cc(C2(O)CC3CCC(C2)O3)c2cnn(-c3ccn[nH]3)c2n1 (stereo unspecified) + Cc1[nH]c2ccc(F)cc2c1-c1nc2c3cccnc3c3ncccc3c2[nH]1
IC50 (second compound 0.0316 µM): 236 nM
IC50 (second compound 0.1 µM): 226 nM
IC50 (second compound 0.316 µM): 234 nM
IC50 (second compound 1 µM): 222 nM
IC50 (second compound 3.16 µM): 176 nM
IC50 (second compound 10 µM): 120 nM
viability, T/C [1]: 95.4%
viability, T/C [2]: 78%
viability, T/C [3]: 40.1%
viability, T/C [4]: 30.6%
viability, T/C [5]: 28.8%
viability, T/C [6]: 25.9%
viability, T/C [7]: 90.2%
viability, T/C [8]: 83.9%
viability, T/C [9]: 35.6%
viability, T/C [10]: 31.1%
viability, T/C [11]: 23.8%
viability, T/C [12]: 17%
viability, T/C [13]: 91.8%
viability, T/C [14]: 61.5%
viability, T/C [15]: 42.4%
viability, T/C [16]: 40%
viability, T/C [17]: 26.1%
viability, T/C [18]: 19.9%
viability, T/C [19]: 99.5%
viability, T/C [20]: 59.7%
viability, T/C [21]: 47.4%
viability, T/C [22]: 32.7%
viability, T/C [23]: 23.2%
viability, T/C [24]: 19.3%
viability, T/C [25]: 92.4%
viability, T/C [26]: 71.8%
viability, T/C [27]: 27.2%
viability, T/C [28]: 31.7%
viability, T/C [29]: 25.7%
viability, T/C [30]: 16.4%
viability, T/C [31]: 88.4%
viability, T/C [32]: 50.8%
viability, T/C [33]: 36.1%
viability, T/C [34]: 30%
viability, T/C [35]: 20.8%
viability, T/C [36]: 20.2%

CCc1c2c(nc3ccc(O)cc13)-c1cc3c(c(=O)n1C2)COC(=O)[C@]3(O)CC + Cc1[nH]c2ccc(F)cc2c1-c1nc2c3cccnc3c3ncccc3c2[nH]1
IC50 (second compound 0.0316 µM): 16.7 nM
IC50 (second compound 0.1 µM): 9.2 nM
IC50 (second compound 0.316 µM): 8.78 nM
IC50 (second compound 1 µM): 12 nM
IC50 (second compound 3.16 µM): 13.2 nM
IC50 (second compound 10 µM): 7.87 nM
viability, T/C (second compound 0.0316 µM, first compound 0.000999 µM): 97.3%
viability, T/C (second compound 0.0316 µM, first compound 0.00316 µM): 81.9%
viability, T/C (second compound 0.0316 µM, first compound 0.00999 µM): 53.6%
viability, T/C [1]: 43%
viability, T/C (second compound 0.0316 µM, first compound 0.0999 µM): 23.4%
viability, T/C [3]: 12.8%
viability, T/C (second compound 0.1 µM, first compound 0.000999 µM): 94.5%
viability, T/C (second compound 0.1 µM, first compound 0.00316 µM): 100%
viability, T/C (second compound 0.1 µM, first compound 0.00999 µM): 46.3%
viability, T/C [7]: 33.1%
viability, T/C (second compound 0.1 µM, first compound 0.0999 µM): 24.9%
viability, T/C [9]: 19.9%
viability, T/C (second compound 0.316 µM, first compound 0.000999 µM): 96.5%
viability, T/C (second compound 0.316 µM, first compound 0.00316 µM): 90.3%
viability, T/C (second compound 0.316 µM, first compound 0.00999 µM): 42.5%
viability, T/C [13]: 32.3%
viability, T/C (second compound 0.316 µM, first compound 0.0999 µM): 21.8%
viability, T/C [15]: 13.8%
viability, T/C (second compound 1 µM, first compound 0.000999 µM): 108%
viability, T/C (second compound 1 µM, first compound 0.00316 µM): 76.8%
viability, T/C (second compound 1 µM, first compound 0.00999 µM): 58.9%
viability, T/C [19]: 28.5%
viability, T/C (second compound 1 µM, first compound 0.0999 µM): 21.7%
viability, T/C [21]: 16.4%
viability, T/C (second compound 3.16 µM, first compound 0.000999 µM): 98.5%
viability, T/C (second compound 3.16 µM, first compound 0.00316 µM): 86.5%
viability, T/C (second compound 3.16 µM, first compound 0.00999 µM): 51.2%
viability, T/C [25]: 35.2%
viability, T/C (second compound 3.16 µM, first compound 0.0999 µM): 20.7%
viability, T/C [27]: 14.5%
viability, T/C (second compound 10 µM, first compound 0.000999 µM): 90.3%
viability, T/C (second compound 10 µM, first compound 0.00316 µM): 74.9%
viability, T/C (second compound 10 µM, first compound 0.00999 µM): 42.5%
viability, T/C [31]: 24.5%
viability, T/C (second compound 10 µM, first compound 0.0999 µM): 20.5%
viability, T/C [33]: 13.4%

CC(C)(O)C1CCC(Nc2ccc3ncc(-c4cccc(C(F)(F)F)c4)n3n2)CC1 (stereo unspecified) + Cc1cnc(CNC(=O)c2c(=O)c3ccc(N4CCCN(C)CC4)nc3n3c2sc2ccccc23)cn1
IC50 (second compound 0.0316 µM): 571 nM
IC50 (second compound 0.1 µM): 352 nM
IC50 (second compound 0.316 µM): < 31.6 nM
IC50 (second compound 1 µM): < 31.6 nM
IC50 (second compound 3.16 µM): < 31.6 nM
IC50 (second compound 10 µM): < 31.6 nM
viability, T/C [1]: 96.8%
viability, T/C [2]: 86.9%
viability, T/C [3]: 82.1%
viability, T/C [4]: 19.8%
viability, T/C [5]: 1.65%
viability, T/C [6]: 2.16%
viability, T/C [7]: 67.2%
viability, T/C [8]: 73.2%
viability, T/C [9]: 53.1%
viability, T/C [10]: 13.9%
viability, T/C [11]: 4.15%
viability, T/C [12]: 1.36%
viability, T/C [13]: 36.8%
viability, T/C [14]: 50.2%
viability, T/C [15]: 37.3%
viability, T/C [16]: 14.8%
viability, T/C [17]: 0.03%
viability, T/C [18]: 2.26%
viability, T/C [19]: 32.5%
viability, T/C [20]: 32.1%
viability, T/C [21]: 28.7%
viability, T/C [22]: 13.3%
viability, T/C [23]: 0.05%
viability, T/C [24]: 0.06%
viability, T/C [25]: 20.9%
viability, T/C [26]: 24.2%
viability, T/C [27]: 29.9%
viability, T/C [28]: 3.87%
viability, T/C [29]: 0.1%
viability, T/C [30]: 0.12%
viability, T/C [31]: 19.6%
viability, T/C [32]: 24.7%
viability, T/C [33]: 27.8%
viability, T/C [34]: 0.18%
viability, T/C [35]: 0.22%
viability, T/C [36]: 0.2%

Reference: PubChem BioAssay AID2060493 (Molecular Pharmacology Branch, DTP, NCI, 2025)
